Assay results: patent publication US8048986B2, “Reversed mammalian protein-protein interaction trap” (Vlaams Interuniversitair Instituut Voor Biotechnologie VZW, priority 2001, dated 2011)
Entries after “also recorded” stand apart in the source; their conditions may differ.

Target: ALK4-FKBP12 interaction (Homo sapiens, UniProt P62942)
Assay: reversed interaction trap: pSELFFY-ALK4 bait with inhibitory prey pMET7-fPPD1-FKBP12, rPAP1-luciferase reporter in HEK293T cells
Assay type: cell-based
Conditions: pSELFFY-ALK4 + pMET7-fPPD1-FKBP12 (1000, 500, 250 ng), FK506 pretreatment, Epo 5 ng/ml after four hours, normalized with irrelevant bait pSELFFY-EpoR, FIG. 6
Experimental: HEK293T cells (six-well plate) were transfected with a combination of the following plasmids:
A representative experiment of triplicate luciferase measurements is shown. The values have been normalized using background luciferase activities (fold induction) and by using an irrelevant bait construct (pSELFFY-EpoR, exp. 4-6) to correct for toxicity of FK506 on the cells.
Two days after transfection, cells were seeded in black well plates (approximately 10,000 cells/well) and pretreated with various concentrations of FK506 as indicated. Epo was added after four hours to the treated cells (5 ng/ml). Twenty-four hours after stimulation, luciferase and beta-galactosidase activities were measured.
The values have been normalized using background luciferase activities (fold induction) and by using an irrelevant bait construct (pSELFFY-EpoR, exp. 4-6) to correct for toxicity of FK506 on the cells.

Chain of ALK4-FKBP12 interaction (P62942 2-107): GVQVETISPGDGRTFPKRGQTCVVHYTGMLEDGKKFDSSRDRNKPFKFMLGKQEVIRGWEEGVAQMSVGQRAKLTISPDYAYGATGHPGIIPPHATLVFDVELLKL
Chain of ALK4-FKBP12 interaction (P18031 1-276 partner limits assumed): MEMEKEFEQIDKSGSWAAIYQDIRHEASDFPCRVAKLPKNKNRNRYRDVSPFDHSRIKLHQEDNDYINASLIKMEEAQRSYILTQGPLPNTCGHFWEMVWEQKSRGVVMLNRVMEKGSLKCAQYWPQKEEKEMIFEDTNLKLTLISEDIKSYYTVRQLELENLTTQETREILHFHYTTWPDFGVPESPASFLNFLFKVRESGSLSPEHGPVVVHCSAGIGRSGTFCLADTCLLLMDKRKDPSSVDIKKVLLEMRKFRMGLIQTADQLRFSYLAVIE

## C=CC[C@@H]1/C=C(\C)C[C@H](C)C[C@H](OC)[C@H]2O[C@@](O)(C(=O)C(=O)N3CCCC[C@H]3C(=O)O[C@H](/C(C)=C/[C@@H]3CC[C@@H](O)[C@H](OC)C3)[C@H](C)[C@@H](O)CC1=O)[C@H](C)C[C@@H]2OC [FK506]
  restoration of signaling via the pSELFFY-ALK4 bait / block of inhibition by the bait-prey interaction (luciferase activity, fold induction): blocked, in a dose dependent manner; also recorded: partially restores signaling
